{"source": "paper PMC10135263", "about": "(Antibiotics, 2023)", "key": {"[1]": {"test": "Difference of pharmacokinetic parameters between intravenous microdialysis and standard plasma sampling", "conditions": "intravenous microdialysis minus standard plasma, mean (95% confidence interval)", "method": "(§1) For the data analysis, the microdialysate concentrations were attributed to the midpoint of the sampling interval. The pharmacokinetic parameters and statistical analysis were performed using STATA (v. 17.0 StataCorp, College Station, TX, USA) for continuous intravenous microdialysis samples and standard plasma samples separately. […] AUC was calculated using the linear-up/log-down method. Cmax was calculated as the maximum of all the concentrations and Tmax as the time to reach Cmax. For comparison between the two sampling methods, the difference of pharmakokinetic parameters between methods is calculated including 95% confidence intervals. The Kenward–Roger approximation method was used due to small sample size, as a correction for degrees of freedom. Model assumptions were tested by visual diagnosis of residuals, fitted values, and estimates of random effects."}, "[2]": {"test": "Pharmacokinetics from standard plasma sampling (central venous catheter), free unbound concentrations", "conditions": "vancomycin 1 g iv infused over 100 min, co-administered with meropenem, eight female pigs, standard plasma samples, mean (95% confidence interval)", "excerpt": "(§2) Eight female pigs, Danish Landrace Breed, weight 78–82 kg, were included. […] Intravenous microdialysis catheters were inserted into the left subclavian vein, guided by ultrasound and using a peripheral venous introducer. On the opposite side of the throat, a central venous catheter was placed for standard plasma sampling (Figure 3). At the end of the sampling period, all pigs were euthanized by intravenous injection of pentobarbital.\nAfter placement, the intravenous microdialysis catheters were perfused with 0.9% NaCl followed by a 20 min tissue equilibrium period. […] Dialysates were collected during an 8 h sampling period every 30 min from time 0 to 240 min and every 60 min from time 240 to 480 min, resulting in 12 dialysates per pig. Plasma samples, each containing approximately 4 mL, were collected from the central venous catheter in the middle of every dialysate sampling interval to EDTA tubes. […] After a 30 min equilibrium period, one calibration sample was collected over a 40 min interval. Collected plasma samples were stored at 5 °C for a maximum of 6 h before being centrifuged at 3000× g for 10 min. Dialysates and plasma samples were frozen at −80 °C until analysis.\nThe principle of this analysis is that (in competition) the free drug competes with a drug–enzyme conjugate for the antibody (File S1). […] Meropenem was quantified using ultra-high-performance liquid chromatography (UHPLC). Quantification was performed after ultrafiltration of the plasma samples using a centrifree ultrafiltration device with a nominal molecular weight limit of 30 kDa (Millipore). Some 5 µL of the filtrate was prepared for analysis.\nas §1"}, "[3]": {"test": "Pharmacokinetics from continuous intravenous microdialysis sampling (subclavian vein), free unbound concentrations", "conditions": "vancomycin 1 g iv infused over 100 min, co-administered with meropenem, eight female pigs, mean (95% confidence interval)", "method": "In the microdialysis system, complete equilibrium will not occur across the semipermeable membrane, due to the constant flow. As such, the obtained concentration in the dialysates represents a fraction of the actual concentration. This fraction is referred to as the relative recovery, and it is essential to calculate to determine the absolute concentration of an analyte. In this study, calibration using retrodialysis by drug was used. Relative recovery was calculated by the following equation:(1) Relative recovery %=100 ·1−Cdialysate/Cperfusate\n(2) Cplasma=100 ·Cdialysate/Relative recovery %\nAll the microdialysis equipment was acquired from M Dialysis AB (Stockholm, Sweden), and consisted of 67 Intravenous Microdialysis Catheters with a membrane length of 30 mm, a 20 kD cut-off, and 107 Microdialysis pumps set at a flow rate of 1 μL/min.\nas §2\nAfter placement, the intravenous microdialysis catheters were perfused with 0.9% NaCl followed by a 20 min tissue equilibrium period. […]\nA 3 µL sample volume was introduced into the UHPLC system with a C18 column and further analyzed with mass spectrometry. […]\nFor the data analysis, the microdialysate concentrations were attributed to the midpoint of the sampling interval. […] AUC was calculated using the linear-up/log-down method. Cmax was calculated as the maximum of all the concentrations and Tmax as the time to reach Cmax. For comparison between the two sampling methods, the difference of pharmakokinetic parameters between methods is calculated including 95% confidence intervals. […]"}}}
{"smiles": "C[C@@H](O)[C@H]1C(=O)N2C(C(=O)O)=C(S[C@@H]3CN[C@H](C(=O)N(C)C)C3)[C@H](C)[C@H]12", "note": "[Meropenem, meropenem]", "values": [{"measurement": "Tmax, difference between methods", "setting": "[1]; meropenem", "value": "5 (−8; 18) min"}]}
{"smiles": "CN[C@H](CC(C)C)C(=O)N[C@H]1C(=O)N[C@@H](CC(N)=O)C(=O)N[C@H]2C(=O)N[C@H]3C(=O)N[C@H](C(=O)N[C@H](C(=O)O)c4cc(O)cc(O)c4-c4cc3ccc4O)[C@H](O)c3ccc(c(Cl)c3)Oc3cc2cc(c3O[C@@H]2O[C@H](CO)[C@@H](O)[C@H](O)[C@H]2O[C@H]2C[C@](C)(N)[C@H](O)[C@H](C)O2)Oc2ccc(cc2Cl)[C@H]1O", "note": "[Vancomycin, vancomycin]", "values": [{"measurement": "Cmax", "setting": "[2]; homogeneous enzyme immunoassay", "value": "36 (24; 49) µg/mL"}, {"measurement": "AUC0–8h", "setting": "[2]; homogeneous enzyme immunoassay, non-compartmental", "value": "7014 (5779; 8249) min µg/mL"}, {"measurement": "T1/2", "setting": "[2]", "value": "197 (124; 270) min"}, {"measurement": "Tmax", "setting": "[2]", "value": "85 (72; 98) min"}, {"measurement": "T1/2, difference between methods", "setting": "[1]; vancomycin", "value": "45 (−55; 146) min"}, {"measurement": "Tmax, difference between methods", "setting": "[1]; vancomycin", "value": "25 (4.3; 46) min"}, {"measurement": "Tmax", "setting": "[3]; intravenous microdialysis samples, concentrations attributed to midpoint of sampling interval", "value": "110 (97; 123) min"}, {"measurement": "T1/2", "setting": "[3]; intravenous microdialysis samples", "value": "242 (162; 322) min"}, {"measurement": "Cmax", "setting": "[3]; intravenous microdialysis, 1 μL/min, UHPLC-MS/MS, recovery-corrected", "value": "14 (2; 26) µg/mL"}]}
